Read-outs that look alike come from different tables or passages of the source. A value given as a limit tells only on which side of the number the result lay.

The values below come from patent publication EP4623702A1, “ORAL PRODUCT” (Nicoventures Trading Limited, priority 2024, dated 2025).

The target in data set [1] is T1, MDCK-MDR1 cell line heterologously expressing the human P-gp transporter (MDR1) (Homo sapiens, UniProt P08183). The note with it: for effect of quercetin on BBB permeability of the compound: MDCK-MDR1.
T1 sequence (P08183 whole entry): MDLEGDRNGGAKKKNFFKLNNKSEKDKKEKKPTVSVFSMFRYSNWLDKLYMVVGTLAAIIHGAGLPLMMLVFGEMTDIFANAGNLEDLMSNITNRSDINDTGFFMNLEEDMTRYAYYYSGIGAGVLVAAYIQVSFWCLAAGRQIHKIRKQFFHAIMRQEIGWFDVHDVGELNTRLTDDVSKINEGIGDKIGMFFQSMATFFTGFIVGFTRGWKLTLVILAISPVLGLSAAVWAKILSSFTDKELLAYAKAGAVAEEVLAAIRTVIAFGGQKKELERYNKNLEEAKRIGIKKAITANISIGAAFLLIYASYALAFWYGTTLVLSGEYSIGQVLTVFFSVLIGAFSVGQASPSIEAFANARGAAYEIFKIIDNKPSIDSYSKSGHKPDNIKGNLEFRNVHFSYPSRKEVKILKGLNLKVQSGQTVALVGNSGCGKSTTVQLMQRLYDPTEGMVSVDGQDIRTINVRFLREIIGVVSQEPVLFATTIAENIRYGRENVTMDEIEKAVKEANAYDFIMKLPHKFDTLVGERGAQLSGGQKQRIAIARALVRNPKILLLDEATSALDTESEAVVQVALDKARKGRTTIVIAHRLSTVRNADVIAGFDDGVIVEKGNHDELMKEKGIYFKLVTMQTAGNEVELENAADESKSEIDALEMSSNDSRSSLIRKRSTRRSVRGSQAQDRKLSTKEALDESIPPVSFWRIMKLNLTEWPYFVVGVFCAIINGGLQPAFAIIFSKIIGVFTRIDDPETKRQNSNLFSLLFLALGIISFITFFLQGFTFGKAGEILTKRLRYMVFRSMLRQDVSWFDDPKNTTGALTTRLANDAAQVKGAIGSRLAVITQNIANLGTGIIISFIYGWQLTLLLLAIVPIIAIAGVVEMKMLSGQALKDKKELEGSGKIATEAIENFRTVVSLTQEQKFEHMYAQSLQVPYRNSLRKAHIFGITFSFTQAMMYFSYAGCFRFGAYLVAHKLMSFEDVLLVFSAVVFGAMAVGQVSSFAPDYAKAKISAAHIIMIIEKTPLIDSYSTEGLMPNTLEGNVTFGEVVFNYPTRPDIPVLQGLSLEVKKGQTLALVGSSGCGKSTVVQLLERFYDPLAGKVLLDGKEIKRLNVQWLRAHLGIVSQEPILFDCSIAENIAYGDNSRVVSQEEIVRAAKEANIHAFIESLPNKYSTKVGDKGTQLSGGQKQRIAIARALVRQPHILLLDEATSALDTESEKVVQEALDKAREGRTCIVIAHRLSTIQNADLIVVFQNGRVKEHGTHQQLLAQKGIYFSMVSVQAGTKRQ
Data set [2] has as its target P-gp (MDR1, ABCB1), human (Homo sapiens, UniProt P08183). Briefly: in vitro. The following applies: dog, MDCK-MDR1, pH 7.4.
Data set [3] has as its target T1, MDCK-MDR1 cell line heterologously expressing the human P-gp transporter (MDR1). Briefly: in vitro. The following applies: dog, MDCK-MDR1, pH 7.4.
Data set [4] has the same target. Kind of data set: MDCK-MDR1 permeability assay (in vitro model for BBB permeation, P-gp substrate identification, with/without inhibitors). The following applies: Compound Alone; apical to basolateral; 1 or 10 µM, 60 minutes, pH 7.4 (Table 2).
Data set [5] addresses p-glycoprotein (Homo sapiens, UniProt P08183). The note with it: value stated as basis for the 30 µM inhibitor concentration; no source given; cited from earlier work.

Sequence of P-gp (MDR1, ABCB1), human (P08183 whole entry): as above
Sequence of p-glycoprotein (P08183 whole entry): as above

Broadly, the Papp A→B is how fast a substance crosses the layer from the apical side. In general, Papp B→A refers to the apparent permeability from the basolateral to the apical side of a cell layer. As usually defined, the Papp is a coefficient for how fast a substance crosses the barrier. A higher Papp goes with fast passage. With `O=c1cc(-c2ccc(O)cc2)oc2cc(O)cc(O)c12` [Apigenin], the “A2B Apparent permeability (Papp)” value in data set [1] (dog, MDCK-MDR1, 60 min, pH 7.4) came to 9.71 ×10⁻⁶ cm/s. In data set [2], the apical-to-basolateral permeability (Papp A→B) at 60 min is 9.71 ×10⁻⁶ cm/s, the Papp B→A at 60 min was found to be 19.1 ×10⁻⁶ cm/s and the Papp at 60 min was 1 to 10 ×10⁻⁶ cm/s.
`CC(/C=C/C=C(\C)C(=O)O)=C\C=C\C=C(C)\C=C\C=C(/C)C(=O)O` [Crocetin]: the “A2B Apparent permeability (Papp)” value in data set [1] (dog, MDCK-MDR1, 60 min, pH 7.4) is 1.67 ×10⁻⁶ cm/s. In addition, in data set [2], the Papp A→B at 60 min was 1.67 ×10⁻⁶ cm/s, the Papp B→A at 60 min turned out to be 5.84 ×10⁻⁶ cm/s and the Papp at 60 min lay within 1 to 10 ×10⁻⁶ cm/s.
As for `CC(/C=C/C=C(\C)C(=O)O[C@@H]1O[C@H](CO[C@@H]2O[C@H](CO)[C@@H](O)[C@H](O)[C@H]2O)[C@@H](O)[C@H](O)[C@H]1O)=C\C=C\C=C(C)\C=C\C=C(/C)C(=O)O[C@@H]1O[C@H](CO[C@@H]2O[C@H](CO)[C@@H](O)[C@H](O)[C@H]2O)[C@@H](O)[C@H](O)[C@H]1O` [Crocin], the “A2B Apparent permeability (Papp)” value in data set [1] (dog, MDCK-MDR1, 60 min, pH 7.4) was 0.22 ×10⁻⁶ cm/s. In data set [2], this compound yielded a Papp A→B at 60 min of 0.22 ×10⁻⁶ cm/s, a Papp B→A at 60 min of 3.12 ×10⁻⁶ cm/s and an apparent permeability (Papp) at 60 min of under 1 ×10⁻⁶ cm/s.
With `O=C(O)[C@H]1O[C@@H](Oc2cc(O)c3c(=O)cc(-c4ccc(O)c(O)c4)oc3c2)[C@H](O)[C@@H](O)[C@@H]1O` [Luteolin-7-glucoronide, Luteolin 7-glucuronide], in data set [1] (MDCK-MDR1, pH 7.4), the “A2B Apparent permeability (Papp)” value was determined as 0.175 ×10⁻⁶ cm/s and the “B2A Apparent permeability (Papp)” value was found to be 0.134 ×10⁻⁶ cm/s. In data set [3], this compound gave a Papp A→B at 1 h of 0.205 ×10⁻⁶ cm/s and a Papp B→A at 1 h of 0.076 ×10⁻⁶ cm/s.
As for `CC1(C)CC[C@]2(C(=O)O)CC[C@]3(C)C(=CC[C@@H]4[C@@]5(C)CC[C@H](O)C(C)(C)[C@@H]5CC[C@]43C)[C@@H]2C1` [Oleanoic acid, Oleanolic acid], the “A2B Apparent permeability (Papp)” value in data set [4] came out at 0.174 ×10⁻⁶ cm/s. In addition, in data set [2], the Papp A→B at 60 min turned out to be 0.174 ×10⁻⁶ cm/s, the Papp B→A at 60 min turned out to be 0.35 ×10⁻⁶ cm/s and the Papp at 60 min is under 1 ×10⁻⁶ cm/s.
One may read the EC50 as the concentration that produces a half-maximal response. `O=C(/C=C/C=C/c1ccc2c(c1)OCO2)N1CCCCC1` [Piperine, (2E,4E)-5-(2H-1,3-benzodioxol-5-yl)-1-(piperidin-1-yl)-penta-2,4-dien-1-one]: in data set [5], the EC50 is 30 µM.
`CC1=C(C=O)C(C)(C)CC=C1` [Safranal]: in data set [3], the Papp A→B at 1 h is 90 ×10⁻⁶ cm/s and the basolateral-to-apical permeability (Papp B→A) at 1 h stood at 43.3 ×10⁻⁶ cm/s.
For `CC1=C(C)C(=O)O[C@@H]([C@](C)(O)[C@H]2CC[C@H]3[C@@H]4[C@@H]5O[C@@H]5[C@@]5(O)CC=CC(=O)[C@]5(C)[C@H]4CC[C@]23C)C1` [Withanolide A], the “effect of quercetin on BBB permeability of the compound” value in data set [1] was “did not, for instance, significantly enhance”. In addition, in data set [1] (MDCK-MDR1, pH 7.4), the “A2B Apparent permeability (Papp)” value is 17.3 ×10⁻⁶ cm/s and the “B2A Apparent permeability (Papp)” value turned out to be 20 ×10⁻⁶ cm/s. Also, in data set [3], the apical-to-basolateral permeability (Papp A→B) at 1 h was 3.65 ×10⁻⁶ cm/s and the Papp B→A at 1 h was 22.2 ×10⁻⁶ cm/s.
Consider `CC1=C(C)C(=O)O[C@@H]([C@@H](C)[C@H]2CC[C@H]3[C@@H]4[C@@H]5O[C@@H]5[C@@]5(O)CC=CC(=O)[C@]5(C)[C@H]4CC[C@]23C)C1` [Withanolide B], for which, in data set [1] (MDCK-MDR1, pH 7.4), the “A2B Apparent permeability (Papp)” value stood at 13.5 ×10⁻⁶ cm/s and the “B2A Apparent permeability (Papp)” value came out at 11.6 ×10⁻⁶ cm/s. Also, in data set [3], the apparent permeability from apical to basolateral (Papp A→B) at 1 h came out at 12 ×10⁻⁶ cm/s and the Papp B→A at 1 h was 13.3 ×10⁻⁶ cm/s.
`CC1=C(C)C(=O)O[C@@H]([C@@H](C)[C@@]2(O)CC[C@H]3[C@@H]4[C@@H]5O[C@@H]5[C@@]5(O)CC=CC(=O)[C@]5(C)[C@H]4CC[C@@]32C)C1` [Withanone]: the “effect of quercetin on BBB permeability of the compound” value in data set [1] was “did not, for instance, significantly enhance”. Also, the “B2A Apparent permeability (Papp)” value in data set [1] (dog, MDCK-MDR1, pH 7.4) was 19.7 ×10⁻⁶ cm/s. In data set [2], this compound registered an apparent permeability from apical to basolateral (Papp A→B) of 1.23 ×10⁻⁶ cm/s and a Papp B→A of 31.6 ×10⁻⁶ cm/s.
